Literature values as cited in patent US20240408056A1, “METHODS FOR REPAIRING NERVE DAMAGE USING PKC ACTIVATING THERAPEUTIC AGENTS” (priority 2023, published 2024).
Where two headings read alike, the source gives them in different places.

Biological target: PKC
[1] = A-ring bryologs, read-out: affinity for PKC

CCCCCCCC(=O)OC1C(=CC(=O)OC)CC2CC(CO)OC(=O)CC(O)CC3CCCC(CC4CCOC(C=CC(C)(C)C1(O)O2)O4)O3 (centres unmarked) [Analog 1]
Ki (Table 1, Bryologs, read-out: PKC Affinity): 0.25 nM | affinity for PKC (in words) (compared with Bryostatin-1 and the other bryologs): highest affinity for PKC

CCCCCCCC(=O)OC1C(=CC(=O)OC)CC2CC(CO)OC(=O)CC(O)CCOC(C(C)(C)C)CC3CCOC(C=CC(C)(C)C1(O)O2)O3 (centres unmarked) [bryolog 3]
Ki [1]: 6.5 nM

CCCCCCCC(=O)OC1C(=CC(=O)OC)CC2CC(CO)OC(=O)CC(O)CCOC(c3ccccc3)CC3CCOC(C=CC(C)(C)C1(O)O2)O3 (centres unmarked) [bryolog 4]
Ki [1]: 2.3 nM

CCCCCCCC(=O)OC1C(=CC(=O)OC)CC2CC(CO)OC(=O)CC(O)CCOC(CCCc3ccc(Br)cc3)CC3CCOC(C=CC(C)(C)C1(O)O2)O3 (centres unmarked) [bryolog 5]
Ki [1]: 1.9 nM
